For one molecule, Cell viability results are on record in patent US11980669B2, “Capped and uncapped antibody cysteines, and their use in antibody-drug conjugation” (PFIZER INC., priority 2015, dated 2024).

The series concerns stable CHO cells. The experiment in a line: Cell viability and cell counts of stable CHO cells cultured with capping reagent in the medium. The series is classed as cell-based. The note with it: 0.5 mM DTNB in CD-CHO medium, 72 hrs. The protocol:
Ellman's reagent, 5,5′-dithiobis-(2-nitrobeoic acid) (DTNB) was examined as a capping agent to add thionitrobenzoate (TNB). (DTNB is commonly used for assaying free thiol content in proteins. This reagent cannot disrupt disulfide bond but can react with free Cys. It has been used to treat partially-reduced antibody materials to generate four free Cys for drug conjugation.) A CHO cell line stably expressing the cysteine mutant antibody was grown to 4×10e6/ml in CD-CHO medium, then switched to fresh CD-CHO medium, fresh CD-CHO medium with 0.5 mM DTNB, or the triple-low medium as a control. Cells were cultured in these conditions for 72 hrs, cell viability was measured and conditioned medium was harvested. […] Protein expression in the DTNB-containing medium was also 5-fold lower than those in CD-CHO. Antibody purification from ProA column and protein migration in SDS-PAGE from all three culture conditions materials were nearly identical, as shown in FIG. 5A. All three samples in SEC analysis show monomer species, with very little aggregation.
19.8 mM MTFB, dissolved in DMSO, was added to 50 ml cell culture at a final concentration of 0.25 mM for 24 hr. Cell viability was measured and conditioned medium was harvested. […] Antibody HAB08L443C at such condition was subsequently purified by a 1 ml-ProA column (FIG. 12B). […]

SMILES strings stand for the structures.

Molecule `O=C(O)c1cc(SSc2ccc([N+](=O)[O-])c(C(=O)O)c2)ccc1[N+](=O)[O-]` [DTNB, 5,5′-dithiobis-(2-nitrobeoic acid)] returned a Cell viability of 40%.
